Patent publication EP1166782A2, “Anti-retroviral pharmaceutical compositions” (Yang, Chi-Chiang, priority 2000, dated 2002)
Read-outs that look alike come from different tables or passages of the source.

Key:
[1] = system: Peripheral Blood Mononuclear Cells (PBMC); details: for The numbers of dead cells in 400 cells' count / % viability: 48 hours; for The numbers of dead cells in 400 cells' count: control 9 dead cells; for % viability: viable cells versus control (391);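 as to all read-outs here: trypan blue dye exclusion, cells stained and counted from quadruplicate dishes, DMSO vehicle kept under 0.5%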
Protocol: Viability of the cells was assayed by the trypan blue dye exclusion method. […] The concentration of DMSO was adjusted to be less than 0.5%. Cells from quadruplicated dishes were washed once with Hank's Balanced Salt Solution (HBSS). According to the process, the floating dead cells will be separated from the live monolayer cells. Then the cells were stained with trypan blue and counted. The total number of viable cells in the control group was considered as 100% viability and the agent-treated cells were compared with the control group for the determination of % viability. The % viability of agent-treated cells was calculated from the total number of viable cells in the control group and in the agent-treated group.

[2] = system: cells; assay: Cellular activities in microculture tetrazolium (MTT) tests; type: cell-based
Protocol: The cellular activities were tested according to method as described in Alley M.C. et al, Cancer Res. 1988; 48(3):589-601. The principle of the method resides in that live cells can reduce MTT., i.e., 3-[4,5-dimethylthiazol-2-yl]-2,5-diphenyltetrazolium bromide)(tetrazolium salt) to formazan crystal through the dehydrogenase metabolism in Mitochondria. The crystal was dissolved in propanol and OD values were determined at 570 nm. The OD values can indicate the numbers of the live cells. The growth conditions of the cells were observed firstly. The cells were diluted to 2x10^4 cells/ml. 100µl sample taken by micropipet was placed in a 96-well plate. The plate was cultured for 24 hours as 37°C and 100µl of the compounds to be tested, which were prepared in medium, were added in each well. […] After culture for 4 hours, supernatant liquid was absorbed and 100 µl DMSO and 10µl /well was added. Each well was homogeneously mixed. The absorbance was determined at 570 nm.

[3] = system: various HIV isolates (NL-43, JRCSF or 89.6); assay: P24 quantification, summary statements over all isolates; type: cell-based, HIV-1
Protocol: (§1) PBMCs were treated with various concentrations of CAPE, MC and PEDMC provided in Example 2 and simultaneously infected with […] and macrophage and T cells dual tropic (89.6) HIV-1 isolates. The next day, the added compounds were removed by washing methods or maintained at the same concentration. Samples were divided into two groups and the upernatants of the culture medium were collected at the 3 and 7 days after infection, respectively. The use of P24 EIA Reagent Kit of Abbott Laboratory compares the concentrations of viral P24 antigen with or without the compounds tested.

[4] = system: macrophage-tropic (NL-43); assay: P24 quantification (P24 EIA) in infected PBMCs, NL-43; type: cell-based, HIV-1; details: PBMC; for concentrations of the viral P24 antigen, NL43(+): (+) original concentration of compound maintained after washing; for concentrations of the viral P24 antigen, NL43(-): (-) compound removed after washing
Protocol: as §1

[5] = system: T cells-tropic (JRCSF); assay: P24 quantification (P24 EIA) in infected PBMCs, JRCSF; type: cell-based, HIV-1; details: PBMC; for concentrations of the viral P24 antigen, JRCSF(+): (+) original concentration of compound maintained after washing; for concentrations of the viral P24 antigen, JRCSF(-): (-) compound removed after washing
Protocol: as §1

[6] = system: macrophage and T cells dual tropic (89.6); assay: P24 quantification (P24 EIA) in infected PBMCs, 89.6; type: cell-based, HIV-1; details: PBMC; for concentrations of the viral P24 antigen, 89.6(+): (+) original concentration of compound maintained after washing; for concentrations of the viral P24 antigen, 89.6(-): (-) compound removed after washing
Protocol: as §1

O=C(/C=C/c1ccc(O)c(O)c1)OCCc1ccccc1 [CAPE, caffeic acid phenethyl ester]
The numbers of dead cells in 400 cells' count ([1]; 0.1 µM): 11 | % viability ([1]; 0.1 µM): 389/391 (99.5%) | The numbers of dead cells in 400 cells' count ([1]; 0.5 µM): 9 | % viability ([1]; 0.5 µM): 391/391 (100%) | The numbers of dead cells in 400 cells' count ([1]; 1 µM): 7 | % viability ([1]; 1 µM): 393/391 (100.5%) | The numbers of dead cells in 400 cells' count ([1]; 5 µM): 10 | % viability ([1]; 5 µM): 390/391 (99.7%) | The numbers of dead cells in 400 cells' count ([1]; 10 µM): 10 | % viability ([1]; 10 µM): 390/391 (99.7%) | The numbers of dead cells in 400 cells' count ([1]; 25 µM): 5 | % viability ([1]; 25 µM): 395/391 (101%) | The numbers of dead cells in 400 cells' count ([1]; 50 µM): 12 | % viability ([1]; 50 µM): 388/391 (99.2%) | The numbers of dead cells in 400 cells' count ([1]; 100 µM): 11 | % viability ([1]; 100 µM): 389/391 (99.5%) | The numbers of dead cells in 400 cells' count ([1]; 200 µM): 7 | % viability ([1]; 200 µM): 393/391 (100.5%) | The numbers of dead cells in 400 cells' count ([1]; 400 µM): 8 | % viability ([1]; 400 µM): 392/391 (100.3%) | viabilities of PBMC under high-dose versus low-dose treatments (result in words) ([1]; high dose up to 400 µM compared with 0.1-10 µM): no substantial differences | MTT 24h, cellular activities ([2]; 0.1 µM): 97.49 relative percentage | MTT 48h, cellular activities ([2]; 0.1 µM): 87.49 relative percentage | MTT 24h, cellular activities ([2]; 0.5 µM): 104.67 relative percentage | MTT 48h, cellular activities ([2]; 0.5 µM): 97.54 relative percentage | MTT 24h, cellular activities ([2]; 1 µM): 109.25 relative percentage | MTT 48h, cellular activities ([2]; 1 µM): 104.18 relative percentage | MTT 24h, cellular activities ([2]; 5 µM): 102.41 relative percentage | MTT 48h, cellular activities ([2]; 5 µM): 99.74 relative percentage | MTT 24h, cellular activities ([2]; 10 µM): 93.07 relative percentage | MTT 48h, cellular activities ([2]; 10 µM): 94.76 relative percentage | MTT 24h, cellular activities ([2]; 25 µM): 98.65 relative percentage | MTT 48h, cellular activities ([2]; 25 µM): 96.92 relative percentage | MTT 24h, cellular activities ([2]; 50 µM): 95.49 relative percentage | MTT 48h, cellular activities ([2]; 50 µM): 96.42 relative percentage | MTT 24h, cellular activities ([2]; 100 µM): 96.15 relative percentage | MTT 48h, cellular activities ([2]; 100 µM): 94.02 relative percentage | MTT 24h, cellular activities ([2]; 200 µM): 106.8 relative percentage | MTT 48h, cellular activities ([2]; 200 µM): 98.6 relative percentage | MTT 24h, cellular activities ([2]; 400 µM): 108.62 relative percentage | MTT 48h, cellular activities ([2]; 400 µM): 98.9 relative percentage | cellular activities in MTT tests (result in words) ([2]; Figures 1 and 2, 24 and 48 hours): no substantial effects | viral replications (result in words) ([3]; Figures 3-5, PBMC infected with NL-43, JRCSF or 89.6): significantly inhibited viral replications | inhibit viral replication ([3]; at the concentration of 100 µM or less, various HIV isolates): 100% | concentrations of the viral P24 antigen, NL43(+) ([4]; 0.1 µM): 1000 unit | concentrations of the viral P24 antigen, NL43(-) ([4]; 0.1 µM): 1000 unit | concentrations of the viral P24 antigen, NL43(+) ([4]; 0.5 µM): 1000 unit | concentrations of the viral P24 antigen, NL43(-) ([4]; 0.5 µM): 1000 unit | concentrations of the viral P24 antigen, NL43(+) ([4]; 1 µM): 1000 unit | concentrations of the viral P24 antigen, NL43(-) ([4]; 1 µM): 1000 unit | concentrations of the viral P24 antigen, NL43(+) ([4]; 5 µM): 1000 unit | concentrations of the viral P24 antigen, NL43(-) ([4]; 5 µM): 1000 unit | concentrations of the viral P24 antigen, NL43(+) ([4]; 10 µM): 990.64 unit | concentrations of the viral P24 antigen, NL43(-) ([4]; 10 µM): 1000 unit | concentrations of the viral P24 antigen, NL43(+) ([4]; 25 µM): 975.64 unit | concentrations of the viral P24 antigen, NL43(-) ([4]; 25 µM): 988.28 unit | concentrations of the viral P24 antigen, NL43(+) ([4]; 50 µM): 166.12 unit | concentrations of the viral P24 antigen, NL43(-) ([4]; 50 µM): 865.44 unit | concentrations of the viral P24 antigen, NL43(+) ([4]; 100 µM): 0 unit | concentrations of the viral P24 antigen, NL43(-) ([4]; 100 µM): 62.26 unit | concentrations of the viral P24 antigen, NL43(+) ([4]; 200 µM): 0 unit | concentrations of the viral P24 antigen, NL43(-) ([4]; 200 µM): 0 unit | concentrations of the viral P24 antigen, NL43(+) ([4]; 400 µM): 0 unit | concentrations of the viral P24 antigen, NL43(-) ([4]; 400 µM): 0 unit | concentrations of the viral P24 antigen, JRCSF(+) ([5]; 0.1 µM): 1000 unit | concentrations of the viral P24 antigen, JRCSF(-) ([5]; 0.1 µM): 1000 unit | concentrations of the viral P24 antigen, JRCSF(+) ([5]; 0.5 µM): 1000 unit | concentrations of the viral P24 antigen, JRCSF(-) ([5]; 0.5 µM): 1000 unit | concentrations of the viral P24 antigen, JRCSF(+) ([5]; 1 µM): 1000 unit | concentrations of the viral P24 antigen, JRCSF(-) ([5]; 1 µM): 1000 unit | concentrations of the viral P24 antigen, JRCSF(+) ([5]; 5 µM): 965.62 unit | concentrations of the viral P24 antigen, JRCSF(-) ([5]; 5 µM): 1000 unit | concentrations of the viral P24 antigen, JRCSF(+) ([5]; 10 µM): 642.72 unit | concentrations of the viral P24 antigen, JRCSF(-) ([5]; 10 µM): 34.42 unit | concentrations of the viral P24 antigen, JRCSF(+) ([5]; 25 µM): 0 unit | concentrations of the viral P24 antigen, JRCSF(-) ([5]; 25 µM): 0 unit | concentrations of the viral P24 antigen, JRCSF(+) ([5]; 50 µM): 0 unit | concentrations of the viral P24 antigen, JRCSF(-) ([5]; 50 µM): 0 unit | concentrations of the viral P24 antigen, JRCSF(+) ([5]; 100 µM): 0 unit | concentrations of the viral P24 antigen, JRCSF(-) ([5]; 100 µM): 0 unit | concentrations of the viral P24 antigen, JRCSF(+) ([5]; 200 µM): 0 unit | concentrations of the viral P24 antigen, JRCSF(-) ([5]; 200 µM): 0 unit | concentrations of the viral P24 antigen, JRCSF(+) ([5]; 400 µM): 0 unit | concentrations of the viral P24 antigen, JRCSF(-) ([5]; 400 µM): 0 unit | concentrations of the viral P24 antigen, 89.6(+) ([6]; 0.1 µM): 1000 unit | concentrations of the viral P24 antigen, 89.6(-) ([6]; 0.1 µM): 1000 unit | concentrations of the viral P24 antigen, 89.6(+) ([6]; 0.5 µM): 899.22 unit | concentrations of the viral P24 antigen, 89.6(-) ([6]; 0.5 µM): 949.75 unit | concentrations of the viral P24 antigen, 89.6(+) ([6]; 1 µM): 643.71 unit | concentrations of the viral P24 antigen, 89.6(-) ([6]; 1 µM): 1000 unit | concentrations of the viral P24 antigen, 89.6(+) ([6]; 5 µM): 243.87 unit | concentrations of the viral P24 antigen, 89.6(-) ([6]; 5 µM): 280.51 unit | concentrations of the viral P24 antigen, 89.6(+) ([6]; 10 µM): 230.32 unit | concentrations of the viral P24 antigen, 89.6(-) ([6]; 10 µM): 255.21 unit | concentrations of the viral P24 antigen, 89.6(+) ([6]; 25 µM): 0 unit | concentrations of the viral P24 antigen, 89.6(-) ([6]; 25 µM): 182.44 unit | concentrations of the viral P24 antigen, 89.6(+) ([6]; 50 µM): 0 unit | concentrations of the viral P24 antigen, 89.6(-) ([6]; 50 µM): 243.53 unit | concentrations of the viral P24 antigen, 89.6(+) ([6]; 100 µM): 0 unit | concentrations of the viral P24 antigen, 89.6(-) ([6]; 100 µM): 113.2 unit | concentrations of the viral P24 antigen, 89.6(+) ([6]; 200 µM): 0 unit | concentrations of the viral P24 antigen, 89.6(-) ([6]; 200 µM): 0 unit | concentrations of the viral P24 antigen, 89.6(+) ([6]; 400 µM): 0 unit | concentrations of the viral P24 antigen, 89.6(-) ([6]; 400 µM): 0 unit
